Earlier results in patent US20060122197A1, “Amido compounds and their use as pharmaceuticals” (priority 2004, published 2006).

Target: T1, 11βHSD1 in the eye (Homo sapiens, UniProt P28845)
T1 construct: host or cells: eye of healthy volunteers (in vivo)
Conditions: healthy volunteers; after seven days of carbenoxolone treatment

T1 sequence (P28845 whole entry): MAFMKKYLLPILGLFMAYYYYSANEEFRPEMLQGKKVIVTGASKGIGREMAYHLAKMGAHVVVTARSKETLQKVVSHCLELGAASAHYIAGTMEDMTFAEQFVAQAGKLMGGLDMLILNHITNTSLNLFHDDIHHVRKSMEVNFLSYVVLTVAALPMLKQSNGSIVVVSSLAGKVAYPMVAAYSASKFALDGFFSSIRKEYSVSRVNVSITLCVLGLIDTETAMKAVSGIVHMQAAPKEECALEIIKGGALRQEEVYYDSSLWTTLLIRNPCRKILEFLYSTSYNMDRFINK

CC1(C)[C@@H](OC(=O)CCC(=O)O)CC[C@]2(C)[C@H]3C(=O)C=C4[C@@H]5C[C@@](C)(C(=O)O)CC[C@]5(C)CC[C@@]4(C)[C@]3(C)CC[C@@H]12 [carbenoxolone]
IOP was reduced by: 18%
